We go through 19 compounds from ChEMBL document CHEMBL5325412, “Privileged heterocycles for DNA-encoded library design and hit-to-lead optimization” (Eur J Med Chem, 2023).

Molecules are shown by their SMILES. Converted amounts (≈) assume the structure as drawn.

The nature of data set [1]: Inhibition of MAPK p68 (unknown origin). Further details: species or system Homo sapiens.
Data set [2] can be described thus: Inhibition of Hepatitis C virus genotype 1a NS4B. Further details: species or system Hepacivirus hominis.
The target of data set [3] is Mitogen-activated protein kinase 10 (Homo sapiens, UniProt P53779). The data set is described as follows: Binding affinity to JNK3 (unknown origin) assessed as inhibition constant.
The target in data set [4] is CREB-binding protein (Homo sapiens, UniProt Q92793). Put plainly: Inhibition of N-terminal His-tagged CREBBP (unknown origin) expressed in Escherichia coli BL21 (DE3).
Data set [5] has as its target Quadruplex DNA. The data set is described as follows: Binding affinity to c-MYC G4 quadruplex DNA (unknown origin) assessed as dissociation constant by fluorescence titration based analysis. Type of data set: nucleic-acid assay.
The nature of data set [6]: Binding affinity to bacterial beta-lactamase OXA-48 expressed in Escherichia coli BL21 (DE3) using nitrocefin as substrate pre-incubated for 5 mins and measured for 20 mins by spectrometric analysis. Also noted: species or system Bacteria.
For data set [7], the target named is Quadruplex DNA. The data set is described as follows: Binding affinity to c-MYC G4- quadruplex DNA Pu22 (unknown origin) assessed as inhibition constant by SPR analysis. Type of data set: nucleic-acid assay. For orientation: Surface plasmon resonance follows binding to a sensor surface in real time, without labels.
The target in data set [8] is T1, 2',5'-phosphodiesterase 12 (Homo sapiens, UniProt Q6L8Q7).
T1 sequence (Q6L8Q7 whole entry): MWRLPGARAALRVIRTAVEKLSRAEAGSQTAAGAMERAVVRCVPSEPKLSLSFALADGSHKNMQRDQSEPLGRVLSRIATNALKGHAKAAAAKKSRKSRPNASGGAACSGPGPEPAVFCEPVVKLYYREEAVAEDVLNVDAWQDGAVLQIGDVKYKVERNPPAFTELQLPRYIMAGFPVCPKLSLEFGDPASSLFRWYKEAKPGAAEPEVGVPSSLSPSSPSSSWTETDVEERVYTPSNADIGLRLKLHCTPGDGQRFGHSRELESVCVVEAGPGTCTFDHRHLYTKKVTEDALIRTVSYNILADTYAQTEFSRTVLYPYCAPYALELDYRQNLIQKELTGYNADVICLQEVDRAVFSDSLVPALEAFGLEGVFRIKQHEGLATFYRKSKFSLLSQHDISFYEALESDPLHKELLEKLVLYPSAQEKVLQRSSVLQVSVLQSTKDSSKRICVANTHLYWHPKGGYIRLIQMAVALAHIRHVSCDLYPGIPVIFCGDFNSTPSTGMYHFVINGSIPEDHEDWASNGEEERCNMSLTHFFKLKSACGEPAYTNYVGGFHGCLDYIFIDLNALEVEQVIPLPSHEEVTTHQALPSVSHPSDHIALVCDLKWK
Put plainly: Binding affinity to PDE12 (unknown origin) (17 to 609 residues) assessed as inhibition constant by AMP-glo reagent based assay.

The target in data set [9] is Carbonic anhydrase 9 (Homo sapiens, UniProt Q16790). Put plainly: Inhibition of human recombinant carbonic anhydrase IX.
In data set [10] the target is T2, Poly [ADP-ribose] polymerase tankyrase-1 (Homo sapiens, UniProt O95271).
T2 sequence (O95271 whole entry): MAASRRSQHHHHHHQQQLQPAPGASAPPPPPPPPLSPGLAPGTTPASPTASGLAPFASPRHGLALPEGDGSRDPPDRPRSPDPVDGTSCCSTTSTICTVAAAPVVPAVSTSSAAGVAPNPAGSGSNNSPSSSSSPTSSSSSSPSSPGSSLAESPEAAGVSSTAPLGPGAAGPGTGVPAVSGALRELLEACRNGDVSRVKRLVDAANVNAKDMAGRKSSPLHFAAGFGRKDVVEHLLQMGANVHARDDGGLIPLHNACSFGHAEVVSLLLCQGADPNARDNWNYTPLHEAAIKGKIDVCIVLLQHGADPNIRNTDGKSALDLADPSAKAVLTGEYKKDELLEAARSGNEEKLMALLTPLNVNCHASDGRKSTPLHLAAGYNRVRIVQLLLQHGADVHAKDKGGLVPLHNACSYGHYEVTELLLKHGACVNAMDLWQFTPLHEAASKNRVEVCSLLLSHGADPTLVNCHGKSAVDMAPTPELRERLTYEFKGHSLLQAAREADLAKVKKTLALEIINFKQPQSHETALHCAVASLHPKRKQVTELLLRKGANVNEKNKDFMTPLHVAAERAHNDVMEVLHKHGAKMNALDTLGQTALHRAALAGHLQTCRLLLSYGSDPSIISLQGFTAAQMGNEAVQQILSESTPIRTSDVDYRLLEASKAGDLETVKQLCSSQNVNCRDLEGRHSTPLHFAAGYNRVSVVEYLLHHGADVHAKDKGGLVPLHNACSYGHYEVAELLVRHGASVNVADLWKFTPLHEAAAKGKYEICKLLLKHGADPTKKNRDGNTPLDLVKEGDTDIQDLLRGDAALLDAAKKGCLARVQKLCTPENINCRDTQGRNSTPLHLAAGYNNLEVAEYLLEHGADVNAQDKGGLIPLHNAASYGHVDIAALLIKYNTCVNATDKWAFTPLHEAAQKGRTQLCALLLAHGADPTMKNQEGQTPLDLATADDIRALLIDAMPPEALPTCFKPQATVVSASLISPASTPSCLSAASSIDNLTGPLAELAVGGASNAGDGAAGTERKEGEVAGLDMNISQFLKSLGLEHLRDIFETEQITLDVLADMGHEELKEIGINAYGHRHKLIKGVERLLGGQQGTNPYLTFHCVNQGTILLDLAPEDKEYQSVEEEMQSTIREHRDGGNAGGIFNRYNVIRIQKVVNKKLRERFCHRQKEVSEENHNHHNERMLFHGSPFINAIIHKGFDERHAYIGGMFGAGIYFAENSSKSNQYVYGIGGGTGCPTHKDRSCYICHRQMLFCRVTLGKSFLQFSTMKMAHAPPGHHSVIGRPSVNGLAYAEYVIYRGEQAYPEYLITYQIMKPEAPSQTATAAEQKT
Put plainly: Binding affinity to TNKS1 (unknown origin) assessed as dissociation constant.

In data set [11] the target is Autotaxin (Homo sapiens, UniProt Q13822). The data set is described as follows: Inhibition of ATX (unknown origin).
Data set [12] addresses Prothrombin (Homo sapiens, UniProt P00734). Put plainly: Binding affinity to thrombin (unknown origin) assessed as inhibition constant.
Data set [13] concerns the target T3, Proteinase-activated receptor 2 (Homo sapiens, UniProt P55085).
T3 sequence (P55085 whole entry): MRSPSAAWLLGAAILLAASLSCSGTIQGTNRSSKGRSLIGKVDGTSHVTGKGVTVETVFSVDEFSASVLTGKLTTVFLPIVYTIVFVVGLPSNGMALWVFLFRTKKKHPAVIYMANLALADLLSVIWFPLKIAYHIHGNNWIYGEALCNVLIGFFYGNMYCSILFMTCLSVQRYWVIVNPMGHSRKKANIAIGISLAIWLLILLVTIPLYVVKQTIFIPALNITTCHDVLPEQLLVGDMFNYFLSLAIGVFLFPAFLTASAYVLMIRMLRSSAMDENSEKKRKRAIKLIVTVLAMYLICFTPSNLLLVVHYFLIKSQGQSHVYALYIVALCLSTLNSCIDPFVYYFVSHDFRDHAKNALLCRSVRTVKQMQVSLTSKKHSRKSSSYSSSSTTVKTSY
The data set is described as follows: Antagonist activity at PAR2 (unknown origin) expressed in human 1321N1 cells. Format: cell-based.

The target in data set [14] is Mitogen-activated protein kinase 8 (Homo sapiens, UniProt P45983). Put plainly: Binding affinity to JNK1 (unknown origin) assessed as dissociation constant.
Data set [15] is described as follows: Solubility of the compound. Type of data set: physicochemical.
For data set [16], the target named is Albumin (Homo sapiens, UniProt P02768). Put plainly: Binding affinity to human serum albumin by fluorescence polarization assay. (In general: In fluorescence polarisation assays a small probe gives low polarisation when free and higher when bound to something large.)
Data set [17] is described as follows: Binding affinity to Peptoid-inspired conformationally constrained oligomer (unknown origin) assessed as dissociation constant.
Data set [18] deals with Bacillus subtilis. The data set is described as follows: Antibacterial activity against Bacillus subtilis ATCC 23857 assessed as bacterial growth inhibition incubated for 16 hrs by broth dilution assay. Type of data set: functional. (In general: Dilution methods test growth across graded concentrations, often in twofold steps.)
In data set [19] the test system is Escherichia coli. The data set is described as follows: Antibacterial activity against Escherichia coli ATCC 25922 assessed as bacterial growth inhibition measured after 16 hrs by broth dilution assay. Type of data set: functional.

Chain of CREB-binding protein (Q92793 whole entry): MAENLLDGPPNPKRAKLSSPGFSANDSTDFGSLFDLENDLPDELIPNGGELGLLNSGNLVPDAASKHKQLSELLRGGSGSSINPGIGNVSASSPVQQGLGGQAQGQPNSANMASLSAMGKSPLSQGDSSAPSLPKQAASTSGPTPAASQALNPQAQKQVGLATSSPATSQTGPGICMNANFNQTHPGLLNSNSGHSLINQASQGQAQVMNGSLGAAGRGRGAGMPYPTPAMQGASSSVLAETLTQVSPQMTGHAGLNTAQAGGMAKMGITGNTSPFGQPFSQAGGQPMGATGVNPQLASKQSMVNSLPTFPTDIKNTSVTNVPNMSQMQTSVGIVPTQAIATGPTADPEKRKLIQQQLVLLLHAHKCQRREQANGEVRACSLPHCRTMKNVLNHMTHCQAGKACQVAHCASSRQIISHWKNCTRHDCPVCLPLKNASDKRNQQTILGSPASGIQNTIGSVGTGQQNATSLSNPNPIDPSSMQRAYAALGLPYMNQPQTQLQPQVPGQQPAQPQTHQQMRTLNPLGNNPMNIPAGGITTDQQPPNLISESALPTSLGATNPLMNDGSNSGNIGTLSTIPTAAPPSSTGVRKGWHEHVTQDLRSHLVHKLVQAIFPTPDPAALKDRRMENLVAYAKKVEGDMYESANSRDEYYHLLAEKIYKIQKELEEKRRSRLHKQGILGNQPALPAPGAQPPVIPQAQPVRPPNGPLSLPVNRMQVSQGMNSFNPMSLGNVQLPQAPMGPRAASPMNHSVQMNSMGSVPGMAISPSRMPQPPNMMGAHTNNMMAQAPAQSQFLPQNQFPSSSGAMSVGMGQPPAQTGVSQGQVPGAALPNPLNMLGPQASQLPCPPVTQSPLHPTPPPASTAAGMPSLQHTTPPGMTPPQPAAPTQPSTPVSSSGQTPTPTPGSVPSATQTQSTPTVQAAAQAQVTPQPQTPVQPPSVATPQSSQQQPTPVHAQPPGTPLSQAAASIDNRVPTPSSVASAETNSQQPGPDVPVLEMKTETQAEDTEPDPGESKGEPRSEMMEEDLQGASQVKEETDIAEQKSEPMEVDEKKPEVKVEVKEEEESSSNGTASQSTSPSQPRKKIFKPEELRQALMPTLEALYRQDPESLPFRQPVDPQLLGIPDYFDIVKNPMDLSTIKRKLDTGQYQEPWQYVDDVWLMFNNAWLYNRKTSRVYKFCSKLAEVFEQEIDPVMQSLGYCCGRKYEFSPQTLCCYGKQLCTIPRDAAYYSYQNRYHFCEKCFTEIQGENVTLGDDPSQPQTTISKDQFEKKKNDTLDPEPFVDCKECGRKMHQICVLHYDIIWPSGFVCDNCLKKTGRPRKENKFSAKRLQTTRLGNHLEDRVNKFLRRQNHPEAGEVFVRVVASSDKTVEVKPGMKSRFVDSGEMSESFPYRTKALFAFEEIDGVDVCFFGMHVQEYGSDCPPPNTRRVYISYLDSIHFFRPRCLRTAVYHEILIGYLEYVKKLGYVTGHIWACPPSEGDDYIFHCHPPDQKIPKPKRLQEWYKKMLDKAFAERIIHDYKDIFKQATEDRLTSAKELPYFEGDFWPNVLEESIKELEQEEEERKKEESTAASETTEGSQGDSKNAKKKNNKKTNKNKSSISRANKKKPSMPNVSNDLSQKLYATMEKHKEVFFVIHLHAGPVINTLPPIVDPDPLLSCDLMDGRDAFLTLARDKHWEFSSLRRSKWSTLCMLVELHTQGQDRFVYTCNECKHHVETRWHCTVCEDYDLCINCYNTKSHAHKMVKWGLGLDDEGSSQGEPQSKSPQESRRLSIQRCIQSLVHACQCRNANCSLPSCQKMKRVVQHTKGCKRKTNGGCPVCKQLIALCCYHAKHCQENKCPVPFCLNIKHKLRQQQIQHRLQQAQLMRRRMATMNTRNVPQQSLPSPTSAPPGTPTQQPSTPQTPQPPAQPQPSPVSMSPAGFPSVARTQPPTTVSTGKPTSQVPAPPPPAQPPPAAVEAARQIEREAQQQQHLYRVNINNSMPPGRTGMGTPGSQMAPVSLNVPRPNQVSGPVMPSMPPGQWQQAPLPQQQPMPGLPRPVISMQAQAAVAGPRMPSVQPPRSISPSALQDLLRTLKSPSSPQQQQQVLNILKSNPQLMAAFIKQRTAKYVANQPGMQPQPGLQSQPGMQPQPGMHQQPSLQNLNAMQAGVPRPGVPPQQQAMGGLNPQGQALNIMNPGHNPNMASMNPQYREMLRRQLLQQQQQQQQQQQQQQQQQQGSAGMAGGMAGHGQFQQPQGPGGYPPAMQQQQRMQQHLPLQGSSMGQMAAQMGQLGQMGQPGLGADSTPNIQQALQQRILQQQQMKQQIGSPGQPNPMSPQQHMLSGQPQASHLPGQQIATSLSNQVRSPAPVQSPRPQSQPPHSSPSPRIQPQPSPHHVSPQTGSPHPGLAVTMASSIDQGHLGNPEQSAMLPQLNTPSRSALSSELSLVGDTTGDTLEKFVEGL
Chain of Mitogen-activated protein kinase 10 (P53779 whole entry): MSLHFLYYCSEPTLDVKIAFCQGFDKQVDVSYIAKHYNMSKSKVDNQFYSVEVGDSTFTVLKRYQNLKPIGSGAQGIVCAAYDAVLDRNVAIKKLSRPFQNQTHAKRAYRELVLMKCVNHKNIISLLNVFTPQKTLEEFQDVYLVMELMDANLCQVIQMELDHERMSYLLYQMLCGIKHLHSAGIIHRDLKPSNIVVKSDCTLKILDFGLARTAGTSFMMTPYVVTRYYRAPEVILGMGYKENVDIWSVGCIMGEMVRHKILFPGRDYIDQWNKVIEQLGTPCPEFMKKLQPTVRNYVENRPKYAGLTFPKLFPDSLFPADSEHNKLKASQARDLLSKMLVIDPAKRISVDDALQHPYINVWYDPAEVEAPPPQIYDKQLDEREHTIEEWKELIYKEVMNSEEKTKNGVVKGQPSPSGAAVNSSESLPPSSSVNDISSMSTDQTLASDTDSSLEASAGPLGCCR
Chain of Mitogen-activated protein kinase 8 (P45983 whole entry): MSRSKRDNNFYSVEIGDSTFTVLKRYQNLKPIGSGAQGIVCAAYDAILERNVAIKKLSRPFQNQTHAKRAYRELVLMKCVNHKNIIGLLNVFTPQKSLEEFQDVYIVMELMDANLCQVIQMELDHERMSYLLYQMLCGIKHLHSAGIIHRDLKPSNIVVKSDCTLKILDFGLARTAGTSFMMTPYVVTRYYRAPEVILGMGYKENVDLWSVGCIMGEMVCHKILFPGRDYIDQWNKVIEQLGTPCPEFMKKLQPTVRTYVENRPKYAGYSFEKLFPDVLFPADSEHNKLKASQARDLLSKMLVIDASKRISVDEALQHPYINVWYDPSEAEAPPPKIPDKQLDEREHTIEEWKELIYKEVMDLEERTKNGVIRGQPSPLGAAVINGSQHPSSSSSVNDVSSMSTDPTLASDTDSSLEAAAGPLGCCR
Chain of Albumin (P02768 whole entry): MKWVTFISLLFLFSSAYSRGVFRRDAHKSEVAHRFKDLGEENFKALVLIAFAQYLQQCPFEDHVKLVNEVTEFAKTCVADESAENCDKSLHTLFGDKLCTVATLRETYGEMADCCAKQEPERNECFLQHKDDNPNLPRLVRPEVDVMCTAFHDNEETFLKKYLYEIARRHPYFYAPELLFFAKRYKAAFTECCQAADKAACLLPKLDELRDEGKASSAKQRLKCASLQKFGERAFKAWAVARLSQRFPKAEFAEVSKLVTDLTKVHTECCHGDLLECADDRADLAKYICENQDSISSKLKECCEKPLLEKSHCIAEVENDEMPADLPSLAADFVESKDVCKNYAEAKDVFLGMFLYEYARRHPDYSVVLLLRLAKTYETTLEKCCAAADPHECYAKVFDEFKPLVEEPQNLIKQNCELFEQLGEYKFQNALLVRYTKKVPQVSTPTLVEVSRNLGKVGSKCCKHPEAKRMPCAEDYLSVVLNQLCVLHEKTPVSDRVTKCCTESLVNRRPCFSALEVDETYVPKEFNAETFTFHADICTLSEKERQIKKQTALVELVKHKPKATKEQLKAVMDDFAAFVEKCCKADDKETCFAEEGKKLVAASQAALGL

In data set [1], `COc1ccc(Nc2nc(NCCc3ccccc3F)nc(Nc3ccc4ncccc4c3)n2)cc1OC` registered an IC50 of 2100 nM. In data set [2], `O=C(c1ccccc1)N1CCC2(CCCN(c3ncc(-c4ccccc4)c(-c4ccc(Cl)cc4)n3)C2)CC1` showed a half-inhibitory concentration (IC50) of 45.8 nM. `O=C(c1ccc2[nH]ccc2c1)N1CCC2(CCCN(c3ncc(-c4ccccc4)c(-c4ccc(Cl)cc4)n3)C2)CC1`: the IC50 in [2] is 42.1 nM. In the case of `CCn1c(-c2ccccc2-c2ccc(C)cc2C)nc2cc(C(=O)NC)ccc21`, the inhibition constant (Ki) in data set [3] worked out at 1.2 nM. As to `C[C@@H]1CC(=O)Cc2cccc(C(=O)NCCNC(=O)CSC(=S)c3ccccc3)c2N1`, the IC50 in [4] came out at 17000 nM. Regarding `CNC(=O)CN(Cc1ccc(OCC(=O)NCc2nc3ccccc3c(=O)[nH]2)c(Cl)c1)Cc1cccn1C`, the Kd in data set [5] is 1050 nM. For the compound `CCOc1ccccc1N1CCN(c2ncnc(N3CCC(C(=O)O)CC3)n2)CC1`, in [6], affinity was put at a Ki of 530 nM. In the case of `Cc1cnccc1N1CCN(c2nccc3c2nc(-c2c[nH]c4ccncc24)n3C)CC1`, in data set [7], the Ki worked out at 328 nM. As for `Cn1c(-c2c[nH]c3cc(C#N)ccc23)nc2ccc(C(=O)N3CCOC(c4ccccc4)C3CO)cc21` (stereo unspecified), the inhibition constant (Ki) in data set [8] turned out to be 17.5 nM. In the case of `CNC(=O)[C@@H]1[C@@H](c2ccc(-c3ccc(S(N)(=O)=O)cc3)cc2)CN1Cc1ccc(O)c2ncccc12`, the IC50 in data set [9] is 20.1 nM. With `CCOc1ccccc1N1CCN(c2ncnc(N3CCC(S(=O)(=O)O)CC3)n2)CC1`, the Ki in data set [6] was 260 nM. Consider `Cc1cn(CC(=O)N[C@@H](CCCCn2cc(-c3ccncc3F)nn2)C(N)=O)c(=O)[nH]c1=O`, for which the Kd in [10] is 15 nM. `NC(=O)CN1CN(c2ccccc2)C2(CCN(C(=O)CCc3ccc(Cl)cc3Cl)CC2)C1=O` returned an IC50 in data set [11] of 2800 nM. As to `CNC(=O)[C@@H]1CN(C(=O)[C@@H](Cc2ccccc2CNC(=N)N)NC(=O)N(C)C2CCOc3ccccc32)C[C@H]1c1ccc(OC)cc1` (stereo partly specified), the inhibition constant Ki in data set [12] stood at 1 nM.

Compound `CC(C1CCCCC1)n1c(-c2cc3c(cc2Br)OCO3)nc2cc(C(=O)Nc3ccc(C#N)cc3)ccc21` (stereo unspecified) yielded an IC50 in data set [13] of 23 nM. As to `O=C(/C=C/C(=O)c1ccc(F)c(F)c1)NCCOCCOCCNC(=O)c1cccnc1Oc1ccccc1`, in data set [14], the Kd stood at 1000 nM. Compound `NCCOCCOCCNC(=O)c1cccc(NC(=O)OC2CCN(C(=O)c3ccc(-c4nc5ccccc5[nH]4)cc3)CC2)c1` showed a solubility in data set [15] of 54 µg/mL (≈ 87.8 µM). This compound returned a Ki in data set [16] of 49.7 nM.

On to `NC(=O)c1coc(CN(Cc2ccc3c(c2)OCO3)C(=O)c2coc(CN(Cc3ccc4c(c3)OCO4)C(=O)c3ncc(CCl)o3)n2)n1`, for which the Kd in [17] was found to be 30 nM. Turning to `O=C(O)c1cn(C2CC2)c2nc(N3CCNCC3)c(F)cc2c1=O`, the figures for the MIC in [18] and in data set [19] were 0.063 µg/mL (≈ 0.19 µM) and 0.016 µg/mL (≈ 0.0481 µM), respectively.

What is called IC50 is the midpoint of a concentration-inhibition curve. In general, Ki refers to the equilibrium dissociation constant of an inhibitor or competing ligand from its target. Usually Kd stands for the concentration at which binding is half-saturated. Usually solubility stands for the concentration that dissolves in the medium under given conditions. A high value points to much dissolved substance. One may read the MIC as the lowest concentration that inhibits growth of the organism.
